Test results: ChEMBL document CHEMBL1914389, “Steroidal C-21 mercapto derivatives as dissociated steroids: discovery of an inhaled dissociated steroid” (Bioorg Med Chem Lett, 2011)

Legend:
Rattus norvegicus [1] = experiment: Toxicity in ip dosed Brown-Norway rat assessed as decrease in body weight administered for 3 days; assay type: organism-based; details: in vivo, 72 h
[2] = target: T1, Glucocorticoid receptor (Homo sapiens) (UniProt P04150); experiment: Transactivation activity at glucocorticoid receptor in human HepG2 cells assessed as induction of tyrosine amino transferase at 1 uM relative to control; assay type: cell-based
T1 sequence (whole entry): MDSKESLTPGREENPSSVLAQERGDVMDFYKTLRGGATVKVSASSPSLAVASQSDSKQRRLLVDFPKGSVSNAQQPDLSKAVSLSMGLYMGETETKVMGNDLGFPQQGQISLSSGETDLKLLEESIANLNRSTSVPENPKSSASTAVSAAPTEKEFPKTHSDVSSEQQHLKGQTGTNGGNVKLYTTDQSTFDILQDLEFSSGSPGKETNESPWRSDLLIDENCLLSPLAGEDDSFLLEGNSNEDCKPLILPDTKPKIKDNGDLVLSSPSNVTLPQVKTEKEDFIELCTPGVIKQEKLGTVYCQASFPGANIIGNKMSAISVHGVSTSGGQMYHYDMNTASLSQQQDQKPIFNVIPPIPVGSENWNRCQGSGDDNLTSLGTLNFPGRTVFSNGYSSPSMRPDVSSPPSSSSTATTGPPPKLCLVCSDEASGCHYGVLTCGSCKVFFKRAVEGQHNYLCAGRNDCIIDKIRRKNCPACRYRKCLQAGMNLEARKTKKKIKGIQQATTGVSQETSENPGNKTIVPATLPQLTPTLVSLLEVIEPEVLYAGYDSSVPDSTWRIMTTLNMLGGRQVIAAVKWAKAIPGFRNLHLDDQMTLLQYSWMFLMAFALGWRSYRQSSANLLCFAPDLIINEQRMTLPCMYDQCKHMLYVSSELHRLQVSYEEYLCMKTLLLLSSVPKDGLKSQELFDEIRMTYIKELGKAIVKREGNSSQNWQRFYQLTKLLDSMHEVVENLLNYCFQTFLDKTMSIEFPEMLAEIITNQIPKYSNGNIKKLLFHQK

[3] = target: T2, Glucocorticoid receptor (Rattus norvegicus) (UniProt P06536); experiment: Transactivation activity at glucocorticoid receptor in rat H4II-E cells assessed as induction of tyrosine amino transferase at 1 uM relative to control; assay type: cell-based
T2 sequence (whole entry): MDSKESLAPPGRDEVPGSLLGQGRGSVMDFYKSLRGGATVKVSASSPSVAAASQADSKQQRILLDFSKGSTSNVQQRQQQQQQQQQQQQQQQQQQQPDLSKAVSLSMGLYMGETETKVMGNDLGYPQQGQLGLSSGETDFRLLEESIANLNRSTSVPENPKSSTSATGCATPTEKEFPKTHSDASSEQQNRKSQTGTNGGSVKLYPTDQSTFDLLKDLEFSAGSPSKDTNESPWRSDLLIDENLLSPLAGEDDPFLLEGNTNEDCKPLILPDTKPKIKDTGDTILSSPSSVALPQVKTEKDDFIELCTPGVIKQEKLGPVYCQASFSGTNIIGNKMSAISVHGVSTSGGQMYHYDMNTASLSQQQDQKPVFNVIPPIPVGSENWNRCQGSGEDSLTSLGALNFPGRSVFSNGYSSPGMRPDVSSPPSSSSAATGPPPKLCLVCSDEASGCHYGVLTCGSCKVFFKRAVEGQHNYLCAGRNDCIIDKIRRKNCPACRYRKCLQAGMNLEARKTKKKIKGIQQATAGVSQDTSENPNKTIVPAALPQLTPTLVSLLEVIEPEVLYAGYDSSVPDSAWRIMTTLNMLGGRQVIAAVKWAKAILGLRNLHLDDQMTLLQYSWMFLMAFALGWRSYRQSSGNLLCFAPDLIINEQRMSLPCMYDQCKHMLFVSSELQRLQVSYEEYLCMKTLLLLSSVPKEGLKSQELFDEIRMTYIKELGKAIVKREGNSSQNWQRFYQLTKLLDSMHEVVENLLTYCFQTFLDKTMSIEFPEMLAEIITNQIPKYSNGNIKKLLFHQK

Rattus norvegicus [4] = experiment: Toxicity in ip dosed Brown-Norway rat assessed as decrease in thymus weight administered for 3 days; assay type: organism-based; details: in vivo, 72 h
[5] = target: T1, Glucocorticoid receptor (Homo sapiens); experiment: Transrepression activity at glucocorticoid receptor in human H292 cells assessed as inhibition of TNF-stimulated IL-6 cytokine synthesis at 1 uM relative to control; assay type: cell-based
Rattus norvegicus [6] = experiment: Antiinflammatory activity in intratracheal insufflated allergen challenged Brown-Norway rat assessed as inhibition of inflammatory cell influx administered as single dose; assay type: functional; details: inhaled or nasal
Rattus norvegicus [7] = experiment: Antiinflammatory activity in ovalbumin-challenged Brown-Norway rat assessed as improvement in lung function administered via nose as dry powder inhalation once a day for 3 days; assay type: functional; details: inhaled or nasal, 72 h
Rattus norvegicus [8] = experiment: Toxicity in ip dosed Brown-Norway rat assessed as decrease in adrenal weight administered for 3 days; assay type: organism-based; details: in vivo, 72 h
Rattus norvegicus [9] = experiment: Induction of thymolysis in ovalbumin-challenged Brown-Norway rat administered via nose inhalation; assay type: organism-based; details: in vivo, inhaled_or_intranasal

CCC(=O)O[C@]1(C(=O)SCF)[C@H](C)C[C@H]2[C@@H]3C[C@H](F)C4=CC(=O)C=C[C@]4(C)[C@@]3(F)[C@@H](O)C[C@@]21C [FLUTICASONE PROPIONATE]
ED50 (Rattus norvegicus [1]): 0.34 mg/kg | Emax [2]: 113% | Emax [3]: 110% | ED50 (Rattus norvegicus [4]): 0.14 mg/kg | Emax [5]: 99% | ED50 (Rattus norvegicus [6]): 0.14 mg/kg | ED70 (Rattus norvegicus [7]): 0.021 mg/kg | ED50 (Rattus norvegicus [8]): 0.52 mg/kg | ED20 (Rattus norvegicus [9]): 0.023 mg/kg
